A short description of the series: Human HepG2 cell viability assay in 384 well format. In kind it is toxicity, cell-based. Also noted: dose 125 nL, time 70.5 hour; cytotoxicity at 70.5 h: concentration not given beside the values. The following applies: HepG2 cells, read-out: Inhibition.
For `O[C@@H]1C[C@H]2CN(Cc3ccsc3)[C@@H](Cc3ccccc3)CN2C1`, the cytotoxicity at 70.5 h was -1.32%. The value for `Cc1ccc(CN2CCCC3(CCCC(=O)N3)C2)s1` (stereo not given) was -8.14%. On to `CN1CC(C(=O)NCc2cccnc2OCc2ccccc2)CC1=O` (stereo not given), for which the cytotoxicity at 70.5 h was -4.14%. With `COCc1nn(CC2CC2)c2c1CN(Cc1cncn1C)CC2` the figure was 2.02%; with `CC(=O)N1CCC[C@@H](NCc2ccc(F)cc2)[C@@H]1c1ccc(C)s1`, -8.87%; with `Cn1cc(CN2CCC3(CC2)CCN(Cc2ccccn2)CC3)cn1`, 12%. On to `Cc1ccc(C(=O)N(C)S(C)(=O)=O)cc1Cl`, for which the cytotoxicity at 70.5 h was -1.55%. The value for `COc1ccc(CCn2cnc(C#N)n2)cc1` was -12.6%; that for `O=C(c1ccccc1-n1cccn1)N1CCCN(c2cccnn2)CC1` was -21.8%; that for `CC(=O)N1CCCC2(C1)CN(C(=O)Cc1ccccc1)CCO2` (stereo not given) was -15.1%. As for `COc1ncccc1CNC(=O)NCc1ccco1`, the cytotoxicity at 70.5 h is -1.48%. The value for `NS(=O)(=O)c1ccc(F)c(C(=O)NCCSC2CCCCC2)c1` was -9.09%; that for `COc1ccc(Oc2ncccc2NC(=O)N2CCOCC2C)cc1` (stereo not given) was -1.92%; that for `CS(=O)(=O)NCCCNC(=O)NCc1ccccc1` was -8.73%. The value for `O=C(C1CCCN1c1ncnc2ccsc12)N1CCSCC1` (stereo not given) was -9.24%; that for `CC(C)NC(=O)NC(C)c1nc(-c2ccccc2)cs1` (stereo not given) was -6.77%. The value for `Cc1nn(C)c(N(C)C)c1CNCc1ccnc(N2CCCCC2)c1` was -2.08%; that for `COCC1CC2(CCN(Cc3cccc(C#N)c3)CC2)CN1C(C)C` (stereo not given) was -4.89%; that for `Cc1nsc(N2CCc3sccc3C2)n1` was -1.49%. As to `CCO[C@@H]1CO[C@@]2(CCCN(S(=O)(=O)c3ccccc3)C2)C1`, the cytotoxicity at 70.5 h is -8.47%. With `CCN(CC)C(=O)[C@@H]1C[C@@H](NC(=O)c2ccoc2)CN1C` the figure was 25.9%. With `Cc1nc(N2CCN(C)CC2)ncc1C(=O)N1CCCCCC1` the figure was -1.12%.

For the compound `CC(=O)N1N=C(COc2ccc3c(c2)OCO3)OC1c1cccc(Cl)c1` (stereo not given), the cytotoxicity at 70.5 h is -2.04%.

As for `O=C(CCc1ccco1)NS(=O)(=O)N1CCOc2ccccc21`, the cytotoxicity at 70.5 h was -1.31%. In the case of `CNC(=O)C(CC(C)C)NC(=O)c1cccc(-c2n[nH]c(C)n2)c1` (stereo not given), the cytotoxicity at 70.5 h stood at 0.903%. For `CCc1noc(CN2CCC(NC(=O)c3ccc(C)s3)CC2)n1`, the cytotoxicity at 70.5 h was -9.12%. With `Fc1cnc(N2CCN3C[C@H](Oc4cncnc4)C[C@H]3C2)nc1` the figure was 5.05%. For the compound `Nc1cccc(-c2cccc3ccnn23)n1`, the cytotoxicity at 70.5 h is -6.36%. With `CC(C)NC(=O)[C@@H]1CN(C)C[C@]12COc1ccc(F)cc1C2=O` the figure was -5.13%; with `CC(C)(C)CN1CCN2C(=O)N(C3CCCCC3)C[C@H]2C1`, -11.1%; with `Cc1nn(C)c2nc(NC3CCNCC3)sc12`, 1.8%. On to `O=C(NC[C@H]1OC[C@@H](NC2CCC(F)(F)CC2)[C@@H]1O)C1CCCC1`, for which the cytotoxicity at 70.5 h was -10.5%.

For `COc1ccccc1CN1CCc2c(nc(-c3ccccn3)[nH]c2=O)C1`, the cytotoxicity at 70.5 h turned out to be 12.7%. With `O=C(Cc1ccncc1)N1C[C@H]2CC[C@@H]1CN(Cc1cccnc1)C2` the figure was 8.28%; with `O=C(c1cc2c([nH]c1=O)CCC2)N1CCCC1c1ccc(F)cc1` (stereo not given), -3.95%. Take `COc1ccc([C@@H]2CN(C(=O)CCC(F)(F)F)C[C@H]2NC(C)=O)cc1`: the cytotoxicity at 70.5 h was -5.27%. On to `COc1ccccc1[C@@H]1CN(C(=O)Cc2csc(C)n2)C[C@H]1C(=O)O`, for which the cytotoxicity at 70.5 h was 12.8%.

Turning to `Cc1csc(CN(C)C(=O)Nc2cc(F)cc(N3CCCC3)c2)n1`, the cytotoxicity at 70.5 h is -11.9%. For `CN(C)C(=O)CO[C@@H]1CC[C@H]2[C@H]1OCCN2C(=O)C1CCOCC1`, the cytotoxicity at 70.5 h was -3.79%. With `CCN1CCO[C@@H]2CN(C(=O)NCc3ccccc3)CC[C@@H]2C1` the figure was -4.68%; with `Cc1cc(C)n(CC2CCCN2C(=O)Cc2c(C)nc(C)[nH]c2=O)n1` (stereo not given), -13.8%.

In the case of `Cc1cnn(CC2CCCCN2C(=O)c2ccc(CN(C)C)cc2)c1` (stereo not given), the cytotoxicity at 70.5 h is -8.06%.

In the case of `CCN(C(=O)CN(CC(N)=O)C(C)C)C1=CCCC1`, the cytotoxicity at 70.5 h was 22.8%.

Consider `CSc1ccc(CCN2CCN([C@H]3CCCC[C@@H]3O)CC2)cc1`, for which the cytotoxicity at 70.5 h is -8.75%.

In the case of `COc1cccc(C(=O)NC(CC(=O)O)c2cccs2)c1OC` (stereo not given), the cytotoxicity at 70.5 h was -9.47%.

Regarding `CNCC(=O)N1CC(c2cc(Nc3ncccn3)nc(C)n2)C1`, the cytotoxicity at 70.5 h is -20.3%.

Regarding `CC(C)NCc1cccnc1N1CCN(c2ccccn2)CC1`, the cytotoxicity at 70.5 h is -11.6%.

Turning to `CC1CCN(Cc2c(C(C)C)[nH]c3ncccc23)CC1`, the cytotoxicity at 70.5 h was -8.35%. With `CC(C)c1nsc(N2CCS(=O)(=O)CC2)n1` the figure was -22.3%; with `Cc1cc(N2CCN(C3CCOCC3)CC(C(=O)N(C)C)C2)ncn1` (stereo not given), -6.48%.

As for `CNC(=O)CCc1cc(C2CCN(c3cnccn3)CC2)nc(C)n1`, the cytotoxicity at 70.5 h is -8.81%. The value for `Cc1ccccc1-c1cncc(C2CCN(C)CC2)n1` was -14.3%; that for `Cc1occc(=O)c1OCc1noc(C(=O)NC(C)C)n1` was -15.1%. With `Cn1ccc(C(=O)N2CCOC(c3ccccn3)C2)cc1=O` (stereo not given) the figure was 6.02%; with `Cc1ccc(C(=O)N(C)Cc2cscn2)c(=O)[nH]1`, -12.9%; with `CN(C)c1ccc(C(=O)N2CCN(CC(O)C(C)(C)C)CC2)nn1` (stereo not given), 0.302%. With `Cc1cccc(C)c1OCC(O)CNCc1c(C)nn(C)c1N(C)C` (stereo not given) the figure was -4.45%. As to `CC(O)CN1CCC(CN(C)Cc2ccc(C#N)cc2F)CC1` (stereo not given), the cytotoxicity at 70.5 h amounted to 6.92%.

For `Cc1ncsc1C(=O)NCc1cccnc1N(C)CCc1ccccn1`, the cytotoxicity at 70.5 h is -5.9%.

With `CCSc1ccc(C(=O)N2CCC3(CCC(=O)N(C)C3)CC2)s1`, the cytotoxicity at 70.5 h was -9.54%. The value for `Cc1sc2ncnc(N3CCC(N(C)Cc4cnn(C)c4)CC3)c2c1C` was 0.374%; that for `CCc1nc(C)c([C@H]2CN(C)C[C@@H]2C(=O)NC(C)(C)c2ccccc2)[nH]1` was -6.37%; that for `CCN(CC)Cc1ccccc1NC(=O)N(C)Cc1ccc(OC)cc1` was -15.6%. The value for `NC(=O)N1CCC2(CC1)CN(c1ccsc1)C(=O)CO2` was 17.7%; that for `CN1C[C@H](O)[C@]2(CCN(C(=O)NCc3ccccc3)C2)S1(=O)=O` was -8.64%. With `CS(=O)(=O)c1ccc(CN2C[C@@H]3OCC(=O)N(CC(N)=O)[C@@H]3C2)cc1` the figure was -4.08%; with `CC/C=C(/C)C(=O)N1CCN(C2=NCC(C)S2)CC1` (stereo not given), 32.7%; with `CSc1nccn1-c1cccc(C(=O)NCCC(=O)NC(C)C)c1`, -3.09%. As to `Cc1noc(C)c1CN1CCc2ncnc(-c3ccc(F)cc3)c2CC1`, the cytotoxicity at 70.5 h was 2.47%. Take `CNc1nc2c(s1)C(c1cccc(F)c1F)CC(=O)N2` (stereo not given): the cytotoxicity at 70.5 h is -11.9%.

For the origin of these results see ChEMBL document CHEMBL3507680, “University of Dundee, Gates Library screen for HepG2 cell viability”.
